In patent US10703756B2, “Pyrrolo[2,3-D]pyrimidinyl, pyrrolo[2,3-B]pyrazinyl, pyrrolo[2,3-B]pyridinyl acrylamides and epoxides thereof” (Pfizer Inc., priority 2015, dated 2020):

Assays:
[1] = molecular target: T1, JAK3 enzyme (Homo sapiens, UniProt P52333); assay: JAK Caliper Enzyme Assay at 4 μM ATP; type: biochemical
T1 sequence (P52333 1-1124): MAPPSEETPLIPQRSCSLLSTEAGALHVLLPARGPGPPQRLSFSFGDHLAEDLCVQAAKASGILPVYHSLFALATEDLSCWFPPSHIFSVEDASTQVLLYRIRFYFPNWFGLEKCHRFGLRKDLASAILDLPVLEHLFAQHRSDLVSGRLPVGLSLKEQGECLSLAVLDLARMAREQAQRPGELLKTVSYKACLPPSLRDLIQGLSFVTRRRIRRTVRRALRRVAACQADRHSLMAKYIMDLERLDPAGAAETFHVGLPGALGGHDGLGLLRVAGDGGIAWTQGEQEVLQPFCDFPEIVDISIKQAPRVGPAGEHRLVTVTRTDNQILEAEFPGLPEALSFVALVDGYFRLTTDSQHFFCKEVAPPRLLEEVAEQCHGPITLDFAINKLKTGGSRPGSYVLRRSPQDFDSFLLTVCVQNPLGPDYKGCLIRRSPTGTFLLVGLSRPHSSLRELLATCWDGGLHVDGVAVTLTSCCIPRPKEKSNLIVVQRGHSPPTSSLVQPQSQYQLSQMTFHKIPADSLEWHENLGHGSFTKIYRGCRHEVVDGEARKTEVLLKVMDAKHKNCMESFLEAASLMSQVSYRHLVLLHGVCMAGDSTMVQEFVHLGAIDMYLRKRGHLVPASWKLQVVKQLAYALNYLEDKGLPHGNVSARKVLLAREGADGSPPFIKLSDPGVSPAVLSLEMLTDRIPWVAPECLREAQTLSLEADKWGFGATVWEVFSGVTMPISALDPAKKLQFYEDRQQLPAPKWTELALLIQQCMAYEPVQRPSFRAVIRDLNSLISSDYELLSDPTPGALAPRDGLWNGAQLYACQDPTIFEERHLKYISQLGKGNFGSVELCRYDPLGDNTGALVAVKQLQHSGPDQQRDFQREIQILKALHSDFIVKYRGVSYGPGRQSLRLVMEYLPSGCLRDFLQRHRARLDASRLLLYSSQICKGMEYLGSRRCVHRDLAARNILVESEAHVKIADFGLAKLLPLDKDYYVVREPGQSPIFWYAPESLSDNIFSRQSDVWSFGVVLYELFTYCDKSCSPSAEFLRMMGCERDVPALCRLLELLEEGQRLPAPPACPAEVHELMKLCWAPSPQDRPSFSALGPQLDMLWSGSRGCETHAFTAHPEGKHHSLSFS
Outline: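 Compound tested as 11-point half-log DMSO dilution series (top 600 μM in DMSO, a dilution-plate level). Enzyme level and time set for 20%-30% peptide phosphorylation; phosphorylated and unphosphorylated peptide separated and quantified by Caliper LC3000 mobility shift.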

[2] = test system: IL-15 induced P-STAT5 in human PBMC; assay: PBMC IL-15 Induced P-STAT5; type: cell-based; conditions: human PBMC, IL-15 final 41 ng/mL; read-out: PBMC IL15_pSTAT5_IC50
Outline: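 Thawed human PBMC, rested in human plasma, were preincubated 15 min at 37 °C with compound (0.2% DMSO), then stimulated 15 min with IL-15 at 41 ng/mL final. After paraformaldehyde fixation and methanol permeabilisation, Alexa Fluor 647 anti-STAT5 staining overnight at 4 °C was analysed by flow cytometry on total lymphocytes.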

| IC50 [1] [nM] | Structure (SMILES) | IC50 [2] [nM] |
| --- | --- | --- |
| 0.305 | C=CC(=O)N1CCC(Oc2cnc3[nH]cc(C(=O)N[C@@H]4CCC[C@@H]4F)c3n2)CC1 [Example 230, 2-[(1-acryloylpiperidin-4-yl)oxy]-N-[(1R,2S)-2-fluorocyclopentyl]-5H-pyrrolo[2,3-b]pyrazine-7-carboxamide] | 155 |
| 0.272 | C=CC(=O)N1CCC(Oc2cnc3[nH]cc(C(=O)NC4CCCC4)c3n2)CC1 (racemic) [Example 204, Racemic-2-[(1-acryloylpiperidin-4-yl)oxy]-N-cyclopentyl-5H-pyrrolo[2,3-b]pyrazine-7-carboxamide] | 130 |
| 1.9 | C=CC(=O)N1CC(CF)CC(Nc2ncnc3[nH]ccc23)C1 (mixture of isomers) [Example 102, Cis-racemic-1-[3-(fluoromethyl-5-(7H-pyrrolo[2,3-d]pyrimidin-4-ylamino)piperidin-1-yl]prop-2-en-1-one] | 237 |
| 1.5 | C=CC(=O)N1C[C@H](Nc2ncnc3[nH]ccc23)CC[C@@H]1CNC(C)=O (racemic) [Example 88, rac-N-(((2R,5R)-5-((7H-pyrrolo[2,3-d]pyrimidin-4-yl)amino)-1-acryloylpiperidin-2-yl)methyl)acetamide] | 3450 |
| 0.408 | C=CC(=O)N1CCC(N(C)c2cnc3[nH]cc(C(=O)NC(C)C)c3n2)CC1 [Example 64, 2-[(1-acryloylpiperidin-4-yl)(methyl)amino]-N-(propan-2-yl)-5H-pyrrolo[2,3-b]pyrazine-7-carboxamide] | 228 |
| 0.125 | C=CC(=O)N1C[C@@H](CC#N)C[C@@H](Nc2ncnc3[nH]ccc23)C1 (single isomer, unassigned) [Example 106] | 192 |
| 1.13 | C=CC(=O)N1CC[C@@H](Oc2cnc3[nH]cc(C(=O)N[C@@H](C)COC)c3n2)C[C@@H]1C (racemic) [Example 71, Trans-racemic-2-{[1-acryloyl-2-methylpiperidin-4-yl]oxy}-N-[(2S)-1-methoxypropan-2-yl]-5H-pyrrolo[2,3-b]pyrazine-7-carboxamide] | 260 |
| 0.971 | C=CC(=O)N1CC[C@@H](Oc2cnc3[nH]cc(C(=O)N[C@@H](C)COC)c3n2)C[C@@H]1C (single isomer, unassigned) [Example 73] | 174 |
| 0.515 | C=CC(=O)N(C)C1CN(c2cnc3[nH]cc(C(=O)N[C@H](C)COC)c3n2)C1 [Example 86, 2-{3-[acryloyl(methyl)amino]azetidin-1-yl}-N-[(2R)-1-methoxypropan-2-yl]-5H-pyrrolo[2,3-b]pyrazine-7-carboxamide] | 260 |
| 0.35 | C=CC(=O)N1CC[C@@H](Nc2cnc3[nH]cc(C(=O)NCC)c3n2)[C@H](C)C1 (single isomer, unassigned) [Example 44] | 315 |
| 0.503 | C=CC(=O)N1CCC(Nc2cnc3[nH]cc(C(=O)NCc4ccccc4)c3n2)CC1 [Example 187, 2-[(1-acryloylpiperidin-4-yl)amino]-N-benzyl-5H-pyrrolo[2,3-b]pyrazine-7-carboxamide] | 54.7 |
| 0.179 | C=CC(=O)N1CCN(c2cnc3[nH]cc(C(=O)N[C@@H](C)COC)c3n2)CC1 [Example 295, 2-(4-acryloylpiperazin-1-yl)-N-[(2S)-1-methoxypropan-2-yl]-5H-pyrrolo[2,3-b]pyrazine-7-carboxamide] | 71 |
| 0.301 | C=CC(=O)N1CC[C@H](Nc2cnc3[nH]cc(C(=O)NCC4CCCC4)c3n2)[C@H](OC)C1 [Example 284, 2-{[(3R,4S)-1-acryloyl-3-methoxypiperidin-4-yl]amino}-N-(cyclopentylmethyl)-5H-pyrrolo[2,3-b]pyrazine-7-carboxamide] | 186 |
| 0.313 | C=CC(=O)N1CC[C@@H](Nc2cnc3[nH]cc(C(=O)N[C@H](C)COC)c3n2)[C@@H](OC)C1 [Example 331, 2-{[(3S,4R)-1-acryloyl-3-methoxypiperidin-4-yl]amino}-N-[(2R)-1-methoxypropan-2-yl]-5H-pyrrolo[2,3-b]pyrazine-7-carboxamide] | 288 |
| 0.138 | C=CC(=O)N1CCC(Oc2cnc3[nH]cc(C(=O)N[C@@H](C)CC)c3n2)CC1 [Example 205, 2-[(1-acryloylpiperidin-4-yl)oxy]-N-[(2S)-butan-2-yl]-5H-pyrrolo[2,3-b]pyrazine-7-carboxamide] | 92.3 |
| 0.24 | C=CC(=O)N1CCN(c2cnc3[nH]cc(C(=O)N[C@H](CC)CC#N)c3n2)C[C@@H]1CC(C)C [Example 314, 2-[(3S)-4-acryloyl-3-(2-methylpropyl)piperazin-1-yl]-N-[(2R)-1-cyanobutan-2-yl]-5H-pyrrolo[2,3-b]pyrazine-7-carboxamide] | 115 |
| 0.515 | C=CC(=O)N1CCC(Nc2cnc3[nH]cc(C(=O)NCc4ccc(F)cc4)c3n2)CC1 [Example 188, 2-[(1-acryloylpiperidin-4-yl)amino]-N-(4-fluorobenzyl)-5H-pyrrolo[2,3-b]pyrazine-7-carboxamide] | 88 |
| 0.384 | C=CC(=O)N1CC[C@H](Nc2cnc3[nH]cc(C(=O)NCC)c3n2)C[C@H]1C (racemic) [Example 40, Trans-racemic-2-{[(2R,4S)-1-acryloyl-2-methylpiperidin-4-yl]amino}-N-ethyl-5H-pyrrolo[2,3-b]pyrazine-7-carboxamide] | 134 |
| 0.404 | C=CC(=O)N1CC[C@H](Nc2cnc3[nH]cc(C(=O)NCCCC(F)(F)F)c3n2)[C@H](OC)C1 [Example 319, 2-{[(3R,4S)-1-acryloyl-3-methoxypiperidin-4-yl]amino}-N-(4,4,4-trifluorobutyl)-5H-pyrrolo[2,3-b]pyrazine-7-carboxamide] | 211 |
| 0.448 | C=CC(=O)N1CC[C@@H](Nc2cnc3[nH]cc(C(=O)NCC(C)(F)F)c3n2)[C@@H](OC)C1 [Example 321, 2-{[(3S,4R)-1-acryloyl-3-methoxypiperidin-4-yl]amino}-N-(2,2-difluoropropyl)-5H-pyrrolo[2,3-b]pyrazine-7-carboxamide] | 310 |
| 0.609 | C=CC(=O)N1CCC(Oc2cnc3[nH]cc(C(=O)NC(C)(C)CC)c3n2)CC1 [Example 209, 2-[(1-acryloylpiperidin-4-yl)oxy]-N-(2-methylbutan-2-yl)-5H-pyrrolo[2,3-b]pyrazine-7-carboxamide] | 206 |
| 0.229 | C=CC(=O)N1CCC(Oc2cnc3[nH]cc(C(=O)N[C@@H](C)COC)c3n2)CC1 [Example 228, 2-[(1-acryloylpiperidin-4-yl)oxy]-N-[(2S)-1-methoxypropan-2-yl]-5H-pyrrolo[2,3-b]pyrazine-7-carboxamide] | 93.3 |
| 0.375 | C=CC(=O)N1CC[C@@H](Nc2cnc3[nH]cc(C(=O)NCC)c3n2)[C@@H](C)C1 (racemic) [Example 37, Cis-racemic-2-{[(3S,4R)-1-acryloyl-3-methylpiperidin-4-yl]amino}-N-ethyl-5H-pyrrolo[2,3-b]pyrazine-7-carboxamide] | 676 |
| 0.68 | C=CC(=O)N1CC[C@H](Nc2cnc3[nH]cc(C(=O)NCC(F)(F)F)c3n2)[C@H](OC)C1 [Example 293, 2-{[(3R,4S)-1-acryloyl-3-methoxypiperidin-4-yl]amino}-N-(2,2,2-trifluoroethyl)-5H-pyrrolo[2,3-b]pyrazine-7-carboxamide] | 218 |
| 0.4 | C=CC(=O)N1CC[C@@H](Nc2cnc3[nH]cc(C(=O)NCC)c3n2)C[C@@H]1C (single isomer, unassigned) [Example 42] | 357 |
| 0.363 | C=CC(=O)N1CCC(Oc2cnc3[nH]cc(C(=O)NC4CCCC4(F)F)c3n2)CC1 (stereo not shown) [Example 219, 2-[(1-acryloylpiperidin-4-yl)oxy]-N-(2,2-difluorocyclopentyl)-5H-pyrrolo[2,3-b)pyrazine-7-carboxamide] | 134 |
